Converted amounts (≈) assume the structure as drawn.
Key:
[1] = Acute toxicity in male ICR mouse assessed as effect on pathological damage in spleen at 2000 mg/kg, IG measured after 14 days by H and E staining based analysis; assay type: organism-based; conditions: in vivo, po, 336 h, time 14 day
[2] = Cytotoxicity against human MT4 cells assessed as reduction in cell viability measured after 5 days by MTT assay; conditions: MT4 cells
[3] = Solubility of compound in phosphate buffer at pH 7.0 measured after 24 hrs by HPLC analysis; assay type: physicochemical
[4] = Acute toxicity in female ICR mouse assessed as effect on pathological damage in kidney at 2000 mg/kg, IG measured after 14 days by H and E staining based analysis; assay type: organism-based; conditions: in vivo, po, 336 h, time 14 day
Cytochrome P450 2D6 = Cytochrome P450 2D6 (Homo sapiens, UniProt P10635); assay: Inhibition of CYP2D6 in human liver microsomes preincubated for 10 mins followed by NADPH addition and measured after 15 mins by LC/MS/MS analysis
[5] = Selectivity index, ratio of CC50 for human MT4 cells to EC50 for wild type HIV-1 IIIB infected in human MT4 cellS; conditions: MT4 cells
[6] = target: Human immunodeficiency virus type 1 reverse transcriptase (Human immunodeficiency virus 1, UniProt Q72547); assay: Inhibition of recombinant wild type HIV-1 Reverse transcriptase incubated for 40 mins by Pico-green reagent based fluorescence analysis
[7] = system: Human immunodeficiency virus 1; assay: Potency index, ratio of 4-(8-(3-nitrophenyl)-1,7-naphthyridin-6-yl)benzoic acid MIC to test compound MIC for antiviral activity against wildtype HIV-1 IIIB infected in human MT4 cells assessed as protection against virus-induced cytopathic effect incubated for 5 days by MTT assay; assay type: functional; conditions: time 5 day
hERG = hERG (Homo sapiens, UniProt Q12809); assay: Inhibition of human ERG expressed in CHO cells at holding potential of -80 mV at >40 uM by automated patch clamp electrophysiological method relative to control; assay type: toxicity, cell-based; conditions: CHO cells that express hERG
[8] = system: Human immunodeficiency virus 1; assay: Antiviral activity against HIV-1 harboring RT K103N mutant infected in human MT4 cells assessed as protection against virus-induced cytopathic effect incubated for 5 days by MTT assay; assay type: functional, organism-based; conditions: Human immunodeficiency virus 1, MT4, 120 h
[9] = Solubility of compound in Watson's distilled pure water measured after 24 hrs by HPLC analysis; assay type: physicochemical
[10] = Acute toxicity in female ICR mouse assessed as effect on body weight at 2000 mg/kg, IG measured after 14 days; assay type: organism-based; conditions: in vivo, po, 336 h, time 14 day
[11] = Acute toxicity in female ICR mouse assessed as effect on pathological damage in lung at 2000 mg/kg, IG measured after 14 days by H and E staining based analysis; assay type: organism-based; conditions: in vivo, po, 336 h, time 14 day
[12] = Acute toxicity in female ICR mouse assessed as effect on pathological damage in spleen at 2000 mg/kg, IG measured after 14 days by H and E staining based analysis; assay type: organism-based; conditions: in vivo, po, 336 h, time 14 day
[13] = target: Voltage-gated inwardly rectifying potassium channel KCNH2 (Homo sapiens, UniProt Q12809); assay: Inhibition of human ERG expressed in CHO cells at holding potential of -80 mV by automated patch clamp electrophysiological method; assay type: toxicity, cell-based
[14] = Acute toxicity in female ICR mouse assessed as effect on pathological damage in heart at 2000 mg/kg, IG measured after 14 days by H and E staining based analysis; assay type: organism-based; conditions: in vivo, po, 336 h, time 14 day
[15] = Solubility of compound in phosphate buffer at pH 2.0 measured after 24 hrs by HPLC analysis; assay type: physicochemical
[16] = Acute toxicity in male ICR mouse assessed as effect on pathological damage in kidney at 2000 mg/kg, IG measured after 14 days by H and E staining based analysis; assay type: organism-based; conditions: in vivo, po, 336 h, time 14 day
[17] = Acute toxicity in male ICR mouse assessed as effect on pathological damage in liver at 2000 mg/kg, IG measured after 14 days by H and E staining based analysis; assay type: organism-based; conditions: in vivo, po, 336 h, time 14 day
[18] = system: Human immunodeficiency virus 1; assay: Antiviral activity against HIV-1 harboring RT Y181C mutant infected in human MT4 cells assessed as protection against virus-induced cytopathic effect incubated for 5 days by MTT assay; assay type: functional, organism-based; conditions: Human immunodeficiency virus 1, MT4, 120 h
Cytochrome P450 3A4 [19] = target: T1, Cytochrome P450 3A4 (Homo sapiens, UniProt P08684); assay: Inhibition of CYP3A4 in human liver microsomes using midazolam as substrate preincubated for 10 mins followed by NADPH addition and measured after 15 mins by LC/MS/MS analysis
[20] = system: Human immunodeficiency virus 1; assay: Antiviral activity against wildtype HIV-1 IIIB infected in human MT4 cells assessed as protection against virus-induced cytopathic effect incubated for 5 days by MTT assay; assay type: functional, organism-based; conditions: Human immunodeficiency virus 1, IIIB, MT4, 120 h
[21] = Acute toxicity in female ICR mouse assessed as effect on pathological damage in brain at 2000 mg/kg, IG measured after 14 days by H and E staining based analysis; assay type: organism-based; conditions: in vivo, po, 336 h, time 14 day
[22] = system: Human immunodeficiency virus 1; assay: Antiviral activity against HIV-1 harboring RT E138K mutant infected in human MT4 cells assessed as protection against virus-induced cytopathic effect incubated for 5 days by MTT assay; assay type: functional, organism-based; conditions: Human immunodeficiency virus 1, MT4, 120 h
[23] = Acute toxicity in male ICR mouse assessed as effect on body weight at 2000 mg/kg, IG measured after 14 days; assay type: organism-based; conditions: in vivo, po, 336 h, time 14 day
Cytochrome P450 3A4 [24] = target: T1, Cytochrome P450 3A4; assay: Inhibition of CYP3A4 in human liver microsomes using testosterone as substrate preincubated for 10 mins followed by NADPH addition and measured after 15 mins by LC/MS/MS analysis
[25] = Metabolic stability in human liver microsomes assessed as half-life at 0.1 uM preincubated for 10 mins followed by NADPH addition and measured upto 60 mins by LC-MS/MS analysis; assay type: ADME, Microsome; conditions: time < 70 min
[26] = system: Human immunodeficiency virus 1; assay: Antiviral activity against HIV-1 harboring RT F227L/V106A double mutant infected in human MT4 cells assessed as protection against virus-induced cytopathic effect incubated for 5 days by MTT assay; assay type: functional, organism-based; conditions: Human immunodeficiency virus 1, MT4, 120 h
[27] = Solubility of compound in phosphate buffer at pH 7.4 measured after 24 hrs by HPLC analysis; assay type: physicochemical
Cytochrome P450 2C19 = Cytochrome P450 2C19 (Homo sapiens, UniProt P33261); assay: Inhibition of CYP2C19 in human liver microsomes preincubated for 10 mins followed by NADPH addition and measured after 15 mins by LC/MS/MS analysis
Chain of Cytochrome P450 2C19 (P33261 whole entry): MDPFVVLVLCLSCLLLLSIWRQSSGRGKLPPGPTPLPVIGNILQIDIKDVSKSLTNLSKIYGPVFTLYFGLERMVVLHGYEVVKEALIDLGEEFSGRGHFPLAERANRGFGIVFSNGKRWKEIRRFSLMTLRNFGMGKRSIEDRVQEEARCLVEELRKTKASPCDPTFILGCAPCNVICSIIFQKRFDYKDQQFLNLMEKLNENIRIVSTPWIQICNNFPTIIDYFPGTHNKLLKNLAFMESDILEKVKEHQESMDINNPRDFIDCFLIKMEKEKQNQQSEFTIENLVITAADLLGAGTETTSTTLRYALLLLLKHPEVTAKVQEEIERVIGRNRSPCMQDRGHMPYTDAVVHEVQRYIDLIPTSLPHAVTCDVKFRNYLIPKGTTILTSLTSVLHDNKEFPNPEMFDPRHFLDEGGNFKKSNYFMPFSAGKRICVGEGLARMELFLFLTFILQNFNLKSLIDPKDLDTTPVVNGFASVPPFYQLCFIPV

T1 sequence (P08684 whole entry): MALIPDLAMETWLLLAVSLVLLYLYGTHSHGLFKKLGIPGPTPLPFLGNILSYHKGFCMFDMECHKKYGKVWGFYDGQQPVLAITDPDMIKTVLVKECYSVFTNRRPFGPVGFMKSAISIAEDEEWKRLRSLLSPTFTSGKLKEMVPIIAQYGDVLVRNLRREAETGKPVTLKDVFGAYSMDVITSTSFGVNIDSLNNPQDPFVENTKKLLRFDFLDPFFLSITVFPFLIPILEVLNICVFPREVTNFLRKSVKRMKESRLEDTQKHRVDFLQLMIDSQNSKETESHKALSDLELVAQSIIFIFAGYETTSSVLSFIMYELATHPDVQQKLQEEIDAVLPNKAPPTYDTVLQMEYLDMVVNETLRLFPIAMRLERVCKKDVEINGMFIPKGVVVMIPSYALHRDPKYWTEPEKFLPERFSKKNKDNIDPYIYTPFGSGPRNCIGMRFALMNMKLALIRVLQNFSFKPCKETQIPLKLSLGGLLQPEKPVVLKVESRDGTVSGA
Chain of Voltage-gated inwardly rectifying potassium channel KCNH2 (Q12809 whole entry): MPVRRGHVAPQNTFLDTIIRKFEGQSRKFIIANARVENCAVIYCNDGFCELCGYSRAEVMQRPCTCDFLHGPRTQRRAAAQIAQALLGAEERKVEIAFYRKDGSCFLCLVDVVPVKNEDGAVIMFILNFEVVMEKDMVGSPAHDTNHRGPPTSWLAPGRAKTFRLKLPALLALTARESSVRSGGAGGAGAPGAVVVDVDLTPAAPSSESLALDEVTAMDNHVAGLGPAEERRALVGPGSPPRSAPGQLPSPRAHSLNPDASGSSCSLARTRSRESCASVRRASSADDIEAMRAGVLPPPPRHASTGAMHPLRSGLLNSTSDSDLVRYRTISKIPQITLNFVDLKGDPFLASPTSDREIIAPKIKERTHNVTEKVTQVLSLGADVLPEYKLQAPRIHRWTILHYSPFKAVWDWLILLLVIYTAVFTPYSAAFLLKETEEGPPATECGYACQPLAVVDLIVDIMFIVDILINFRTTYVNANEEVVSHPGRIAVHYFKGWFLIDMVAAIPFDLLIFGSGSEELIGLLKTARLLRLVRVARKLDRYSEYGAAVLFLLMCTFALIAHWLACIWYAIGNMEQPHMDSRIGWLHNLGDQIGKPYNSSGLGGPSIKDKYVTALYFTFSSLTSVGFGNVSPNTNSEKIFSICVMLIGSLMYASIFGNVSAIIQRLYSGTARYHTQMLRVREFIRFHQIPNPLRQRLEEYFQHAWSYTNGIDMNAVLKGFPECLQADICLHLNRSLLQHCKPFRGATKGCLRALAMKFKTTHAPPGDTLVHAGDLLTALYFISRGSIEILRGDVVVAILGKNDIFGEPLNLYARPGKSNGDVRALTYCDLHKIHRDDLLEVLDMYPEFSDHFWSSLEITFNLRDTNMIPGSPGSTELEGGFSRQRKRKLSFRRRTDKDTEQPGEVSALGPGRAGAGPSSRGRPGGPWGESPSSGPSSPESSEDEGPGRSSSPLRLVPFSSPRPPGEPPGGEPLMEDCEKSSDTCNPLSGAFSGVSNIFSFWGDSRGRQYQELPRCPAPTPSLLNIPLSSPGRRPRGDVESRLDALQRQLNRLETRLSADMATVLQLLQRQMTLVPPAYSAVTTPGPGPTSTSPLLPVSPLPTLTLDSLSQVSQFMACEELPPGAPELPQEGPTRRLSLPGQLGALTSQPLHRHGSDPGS
Chain of hERG (Q12809 whole entry): as above
Chain of Cytochrome P450 2D6 (P10635 whole entry): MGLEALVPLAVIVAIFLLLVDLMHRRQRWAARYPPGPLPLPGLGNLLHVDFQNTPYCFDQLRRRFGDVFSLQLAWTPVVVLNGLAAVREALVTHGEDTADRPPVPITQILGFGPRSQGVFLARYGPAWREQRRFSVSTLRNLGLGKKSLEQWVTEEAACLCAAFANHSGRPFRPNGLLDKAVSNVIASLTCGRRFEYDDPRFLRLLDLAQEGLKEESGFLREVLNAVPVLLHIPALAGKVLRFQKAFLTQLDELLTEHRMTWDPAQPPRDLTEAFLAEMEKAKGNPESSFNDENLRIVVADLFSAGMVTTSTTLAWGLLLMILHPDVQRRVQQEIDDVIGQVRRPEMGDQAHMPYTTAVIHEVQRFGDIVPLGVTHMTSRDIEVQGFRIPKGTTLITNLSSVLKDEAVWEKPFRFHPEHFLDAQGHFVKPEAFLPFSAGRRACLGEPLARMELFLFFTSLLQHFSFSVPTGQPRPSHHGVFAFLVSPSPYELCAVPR

For Cc1cc(-c2ccncc2)cc(C)c1Nc1nc(Nc2ccc(C#N)cc2)ncc1-c1cn[nH]c1, which Activity [1] is on record?
The Activity was “Non-toxic”.

What about the CC50 at 120 h [2] of the same compound?
The CC50 at 120 h was > 273000 nM.

What about the solubility at 24 h [3] of the same compound?
Its solubility at 24 h is < 1 µg/mL.

What about the Activity [4] of the same compound?
The Activity was “Non-toxic”.

And the IC50 (Cytochrome P450 2D6)?
Its IC50 is > 50000 nM.

And the selectivity ratio [5]?
Its selectivity ratio is > 52600.

What about the IC50 [6] of the same compound?
The IC50 was 49 nM.

What about the Ratio [7] of the same compound?
The Ratio was 37.

What about the inhibition at 40 µM (hERG) of the same compound?
Its inhibition at 40 µM is 31.4%.

What about the EC50 [8] of the same compound?
Its EC50 is 7 nM.

What about the solubility at 24 h [9] of the same compound?
Its solubility at 24 h is 1.3 µg/mL (≈ 2.84 µM).

What about the Activity [10] of the same compound?
The Activity was “Non-toxic”.

What about the Activity [11] of the same compound?
The Activity was “Non-toxic”.

And the Activity [12]?
The Activity was “Non-toxic”.

What about the IC50 [13] of the same compound?
Its IC50 is > 40000 nM.

What about the Activity [14] of the same compound?
The Activity was “Non-toxic”.

What about the solubility at 24 h [15] of the same compound?
Its solubility at 24 h is 1190 µg/mL (≈ 2600 µM).

What about the Activity [16] of the same compound?
The Activity was “Non-toxic”.

What about the Activity [17] of the same compound?
Its Activity is “Non-toxic”.

And the EC50 [18]?
The EC50 was 13 nM.

What about the IC50 (Cytochrome P450 3A4 [19]) of the same compound?
The IC50 was > 50000 nM.

And the EC50 [20]?
Its EC50 is 5 nM.

What about the Activity [21] of the same compound?
The Activity was “Non-toxic”.

What about the EC50 [22] of the same compound?
The EC50 was 11 nM.

And the Activity [23]?
The Activity was “Non-toxic”.

And the IC50 (Cytochrome P450 3A4 [24])?
Its IC50 is > 50000 nM.

What about the half-life at 0.1 µM [25] of the same compound?
The half-life at 0.1 µM was 29.9 min.

And the EC50 [26]?
Its EC50 is 79 nM.

What about the solubility at 24 h [27] of the same compound?
The solubility at 24 h was < 1 µg/mL.

What about the IC50 (Cytochrome P450 2C19) of the same compound?
The IC50 was > 50000 nM.
